Results taken from patent publication US20040121947A1, “Compounds which inhibit beta-secretase activity and methods of use thereof” (Oklahoma Medical Research Foundation, priority 2000, published 2004).
Where “and” joins values, the source holds several entries; their conditions need not be identical. Equal entries are not always repeated. Where two headings read alike, the source gives them in different places.

Experiments:
[1] = system: plasma Aβ40; assay: Inhibition of Aβ production in transgenic mouse model of Alzheimer's disease (plasma Aβ40 ELISA); format: in vivo, APP/F mice; conditions: for Sustainment of inhibition of plasma Aβ40: over a 24-h period; for Blood brain barrier penetration (from reduction of plasma Aβ): transgenic mice; for Decrease in plasma Aβ40: within 30 minutes following i.p. injection of about 163 nanomoles
Description: Compounds MMI-138, MMI-165, and MMI-185 were synthesized as described above. Compounds were dissolved in 1 ml of dimethyl sulfoxide (DMSO) to a final concentration of about 1 mg/ml for MMI-165 and MMI-185, and about 10 mg/ml for MMI-138. […] Inhibitors were diluted into PBS or H2O immediately prior to injection, as described below. Inhibition constants were determined by methods described by Ermolieff, et al. (Biochem. 39:12450-12456 (2000), the teachings of which are incorporated hereby in their entirety).
The tg2576 strain of mice was obtained from Taconic (Germantown, N.Y.). The APP/F strain of mice were obtained by mating the tg2576 mice with the FVB/N strain. To determine presence of the Swedish APP gene in APP/F mice, the DNA from mice was isolated according to the Qiagen Dneasy™ Tissue Kit. PCR (Qiagen kit and protocol) was used to amplify the fragment of DNA corresponding to the human Swedish APP gene. The following primers were used: […]
At the age of three months, animals of the Alzheimer's disease mouse model APP/F were injected intraperitoneally (i.p.) with about 163 nanomoles of either compounds MMI-138 (molecular weight 674 g/mole; 110 μg per animal, n=2), MMI-165 (molecular weight 626 g/mole; 102 μg per animal, n=2), or MMI-185 (molecular weight 686; 112 μg per animal, n=2).
Heparinized capillary tubes collected blood samples from anesthetized animals from either the retro-orbital sinus or from the saphenous vein at specified intervals following injection. The blood samples were transferred to sterile 1.5 mL microcentrifuge tubes, centrifuged at 5,100 RPM for 10 minutes to recover the plasma (supernatant), and stored at −70° C. until analysis for the Aβ40 by Enzyme Linked-Immuno-Sorbent Assay (ELISA).
A sandwich ELISA (BioSource International, Camarillo, Calif.) was used to determine the levels of Aβ40 in plasma samples. The ELISA utilizes a primary antibody specific for human Aβ for the immobilization of the amino-terminus and a detection antibody specific for the carboxy-terminal amino acids of Aβ40. A conjugated secondary antibody was used to detect the ternary complex, using a stabilized chromogen substrate, quantifiable following addition of 1 M HCl, with the optical densities measured at 450 nm. The procedures were followed according to the BioSource protocol. Optical densities were converted to pg/ml quantities of Aβ40 using a linear regression of the optical densities of standards obtained from the commercial kit, to their known concentrations.

[2] = biological target: T1, memapsin 2 (Homo sapiens, UniProt P56817); assay: Inhibition of memapsin 2 proteolytic activity, fluorogenic substrate FS-2; format: biochemical; conditions: for % Inhibition Mep2: enzyme concentration equals the compound concentration; for % Inh (M1/M2): ratio of % inhibition memapsin 1 / memapsin 2, 1 or less = greater inhibition of memapsin 2; for Vi/Vo: ratio of initial cleavage velocities of FS-2 with/without compound, enzyme and inhibitor concentrations equal (e.g., about 80 nM, 100 nM); for Selectivity: Ki for memapsin 2 lower than Ki for memapsin 1: memapsin 2 relative to memapsin 1
T1 construct: pET-11 vector-derived residues 1-15 of promemapsin 2-T1 (N, cleaved yes); made in house; host or cells: E. coli
Summary of the method: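 Inhibitors tested at about 10 nM to 10 μM in pH 4.0 0.1 M sodium acetate containing 10% (v/v) DMSO, after 20 min preincubation at 37 °C with 80 nM self-activated memapsin 2. Substrate-independent Ki derived from apparent Ki via Km and substrate level.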

[3] = biological target: T2, memapsin 1 (Homo sapiens, UniProt Q9Y5Z0); assay: Inhibition of memapsin 1 proteolytic activity, fluorogenic substrate FS-2; format: biochemical; conditions: for % Inhibition Mep1: enzyme concentration equals the compound concentration
T2 construct: pET-11 vector-derived residues 1-14 of promemapsin 1-T1 (N, cleaved yes); made in house; host or cells: E. coli
T2 sequence (Q9Y5Z0 63-466 limits assumed): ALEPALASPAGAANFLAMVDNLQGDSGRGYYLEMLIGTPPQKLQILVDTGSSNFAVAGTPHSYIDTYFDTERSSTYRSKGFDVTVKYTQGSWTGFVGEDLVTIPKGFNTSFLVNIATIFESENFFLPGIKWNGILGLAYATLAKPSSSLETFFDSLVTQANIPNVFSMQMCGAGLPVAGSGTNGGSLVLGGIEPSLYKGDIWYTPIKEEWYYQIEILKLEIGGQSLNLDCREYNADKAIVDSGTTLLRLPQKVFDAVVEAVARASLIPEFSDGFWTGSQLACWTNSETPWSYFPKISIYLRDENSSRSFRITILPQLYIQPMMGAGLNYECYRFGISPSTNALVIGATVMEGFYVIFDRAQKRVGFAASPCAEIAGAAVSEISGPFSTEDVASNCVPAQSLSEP
Description: Vi/Vo depicts the ratio of initial cleavage velocities of the substrate FS-2 (Ermolieff, et al., Biochemistry […]:12450-12456 (2000)) by memapsin 1 or memapsin 2 in the absence (Vo) or presence (Vi) of a compound of the invention. […] The Vi/Vo values depicted in Table 1 were determined at conditions under which the enzyme and inhibitor concentrations were equal (e.g., about 80 nM, 100 nM).
The relationship of Ki (independent of substrate concentration) to Kiapp is a function of substrate concentration in the assay and the Km for cleavage of the substrate by either memapsin 1 or memapsin 2 by the relationship:
An aliquot of the inhibitor of known concentration in DMSO was diluted into 1.8 ml 0.1 M NaOAc, pH 4.0. DMSO and added to a final concentration of 10% (v/v), and memapsin 2 (final concentration of 80 nM), followed by a 20 minute equilibration at 37° C. Compounds were evaluated for the ability to inhibit memapsin 1 and memapsin 2 at concentrations between about 10 nM and about 10 μm of inhibitor.
The relationship of Ki (independent of substrate concentration) to Kiapp is a function of substrate concentration in the assay and the Km for cleavage of the substrate by either memapsin 1 or memapsin 2 by the relationship: […]

[4] = Table 9, read-out: Ki apparent Mep2
[5] = memapsin 2, apparent Ki in presence of substrate FS-2, read-out: Ki app
[6] = memapsin 2, independent of substrate, converted from Ki apparent, read-out: Ki
[7] = Table 9, read-out: Ki apparent Mep1

T1 sequence (P56817 41-454 limits assumed): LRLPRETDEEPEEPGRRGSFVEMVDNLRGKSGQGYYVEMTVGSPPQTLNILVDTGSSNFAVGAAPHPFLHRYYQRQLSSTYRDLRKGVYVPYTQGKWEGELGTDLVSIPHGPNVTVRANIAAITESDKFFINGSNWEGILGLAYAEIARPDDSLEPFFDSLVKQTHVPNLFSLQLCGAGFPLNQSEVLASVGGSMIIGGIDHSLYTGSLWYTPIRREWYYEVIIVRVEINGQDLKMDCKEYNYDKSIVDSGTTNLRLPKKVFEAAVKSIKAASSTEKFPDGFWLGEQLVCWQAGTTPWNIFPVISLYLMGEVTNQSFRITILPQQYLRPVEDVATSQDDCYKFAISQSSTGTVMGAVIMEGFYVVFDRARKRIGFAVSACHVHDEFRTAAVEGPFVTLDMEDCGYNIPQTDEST

| Blood brain barrier penetration (from reduction of plasma Aβ) [1] | Ki [2, 4] [nM] | % Inhibition Mep2 [2] [%] | Ki [2, 5] [nM] | Ki [2, 6] [nM] | Ki ([2]; memapsin 2, read-out: Ki) | % Inh (M1/M2) [2] | Vi/Vo [2] | % Inhibition Mep1 [3] [%] | Ki [3, 7] [nM] | Ki ([2]; Ki, [I] < 100, memapsin 2, [I] < 100 (nM)) [nM] | Selectivity: Ki for memapsin 2 lower than Ki for memapsin 1 [2] | Selectivity: Ki for memapsin 2 lower than Ki for memapsin 1 ([2]; listed as 138) | Ki ([3]; read-out: Ki for memapsin 1) [nM] | SMILES | Sustainment of inhibition of plasma Aβ40 [1] | Decrease in plasma Aβ40 [1] [%] |
| --- | --- | --- | --- | --- | --- | --- | --- | --- | --- | --- | --- | --- | --- | --- | --- | --- |
| penetrated the blood brain barrier | 24.5 | 60 | 24.5 | 15.3 | 15.3 nM | 0.45 | 0.4 | 27 | – | – | – | – | – | CSCC[C@H](NC(=O)OCn1nc(C)cc1C)C(=O)N[C@@H](CC(C)C)[C@@H](O)C[C@@H](C)C(=O)N[C@H](C(=O)NC(C)C)C(C)C [MMI-165] | remained nearly constant | 46 |
| – | – | 47 | 107 | 67.1 | – | 1.30 | 0.46 | 61 | – | – | – | – | – | CSCC[C@H](NC(=O)[C@@H](NC(=O)OC(C)(C)C)C(C)C)C(=O)N[C@@H](CC(C)C)[C@@H](O)C[C@@H](CO)C(=O)N[C@H](C(=O)NCc1ccccc1)C(C)C [MMI-132] | – | – |
| – | 27.4 | – | 27.4 | 17.1 | – | – | – | – | 1030 | – | – | – | – | CSCC[C@H](NC(=O)C(Cn1nc(C)cc1C)C(C)C)C(=O)N[C@@H](CC(C)C)[C@@H](O)C[C@@H](C)C(=O)N[C@H](C(=O)NCC(C)C)C(C)C (stereo partly shown) [MMI-204] | – | – |
| penetrated the blood brain barrier | – | – | 7.23 | 4.52 | 4.5 nM | – | – | – | – | – | – | – | – | COCC[C@H](NC(=O)[C@H](CC(C)C)NC(=O)OC(C)(C)C)C(=O)N[C@@H](CC(C)C)[C@@H](O)C[C@@H](C)C(=O)N[C@@H](CC(C)C)C(=O)NC(C)C [MMI-185] | appeared to return to initial level | 63 |
| – | – | 52 | – | – | – | 0.73 | 0.48 | 38 | – | – | – | – | – | CC(C)C[C@H](NC(=O)[C@H](CCS(C)(=O)=O)NC(=O)[C@@H](NC(=O)OC(C)(C)C)C(C)C)[C@@H](O)C[C@@H](C)C(=O)N[C@@H](C(=O)NCc1ccccc1)[C@@H](C)O [MMI-073] | – | – |
| – | – | 81 | 3.48 | 2.18 | – | 1.21 | – | 98 | – | – | – | – | – | CSCC[C@H](NC(=O)[C@H](CC(C)C)NC(=O)OC(C)(C)C)C(=O)N[C@@H](CC(C)C)[C@@H](O)C[C@@H](C)C(=O)N[C@H](C(=O)NCC(C)C)C(C)C [MMI-134] | – | – |
| – | – | 56 | 49 | 30.6 | – | 1.52 | 0.29 | 85 | – | – | – | – | – | CSCC[C@H](NC(=O)[C@@H](NC(=O)OC(C)(C)C)C(C)C)C(=O)N[C@@H](CC(C)C)[C@@H](O)C[C@@H](C)C(=O)N[C@@H](CC(C)C)C(=O)NCc1ccco1 [MMI-116] | – | – |

The next lines start with the compound.

| SMILES | Blood brain barrier penetration (from reduction of plasma Aβ) [1] | Ki [2, 4] [nM] | % Inhibition Mep2 [2] [%] | Ki [2, 5] [nM] | Ki [2, 6] [nM] | Ki ([2]; memapsin 2, read-out: Ki) | % Inh (M1/M2) [2] | Vi/Vo [2] | % Inhibition Mep1 [3] [%] | Ki [3, 7] [nM] | Ki ([2]; Ki, [I] < 100, memapsin 2, [I] < 100 (nM)) [nM] | Selectivity: Ki for memapsin 2 lower than Ki for memapsin 1 [2] | Selectivity: Ki for memapsin 2 lower than Ki for memapsin 1 ([2]; listed as 138) | Ki ([3]; read-out: Ki for memapsin 1) [nM] | Sustainment of inhibition of plasma Aβ40 [1] | Decrease in plasma Aβ40 [1] [%] |
| --- | --- | --- | --- | --- | --- | --- | --- | --- | --- | --- | --- | --- | --- | --- | --- | --- |
| CCCCNC(=O)[C@H](C(C)C)N1CC[C@@](C)(C[C@H](O)[C@H](CC(C)C)NC(=O)[C@H](CCSC)NC(=O)OCn2nc(C)cc2C)C1=O [MMI-182] | – | – | 34 | 447 | 280 | – | 0 | 0.66 | 0 | – | 72.7 | – | – | – | – | – |
| CCCCNC(=O)[C@@H](NC(=O)[C@H](C)C[C@H](O)[C@H](CC(C)C)NC(=O)[C@H](CCSC)NC(=O)OCn1nc(C)cc1C)C(C)C [MMI-167] | – | – | 44 | 36.6 | 22.8 | – | 0.18 | 0.56 | 8 | – | – | – | – | – | – | – |
| CSCC[C@H](NC(=O)OCn1nc(C)cc1C)C(=O)N[C@@H](CC(C)C)[C@@H](O)C[C@@H](C)C(=O)N[C@H](C(=O)NCc1ccccc1)C(C)C [MMI-138] | penetrated the blood brain barrier | 14.2 | 72 | 14.2 | – | 14.2 nM and 8.8 nM | 0.10 | – | 7 | – | – | about 60 fold | about 60 fold | 811 | remained nearly constant | 57 |
| CSCC[C@H](NC(=O)OCn1nc(C)cc1C)C(=O)N[C@@H](CC(C)C)[C@@H](O)C[C@]1(C)CCN([C@@H](CC(C)C)C(=O)NCC(C)C)C1=O [MMI-181] | – | – | 47 | 393 | 246 | – | 0.19 | 0.53 | 9 | – | – | – | – | – | – | – |
| CSCC[C@H](NC(=O)OCn1nc(C)cc1C)C(=O)N[C@@H](CC(C)C)[C@@H](O)C[C@@H](C)C(=O)N[C@@H](CC(C)C)C(=O)NC(CF)CF [MMI-171] | – | – | 45 | 63.9 | 40 | – | 0.18 | 0.55 | 8 | – | – | – | – | – | – | – |
| Cc1cc(C)n(COC(=O)N[C@@H](CCS(C)(=O)=O)C(=O)N[C@@H](CC(C)C)[C@@H](O)C[C@@H](C)C(=O)N[C@H](C(=O)NCc2ccccc2)C(C)C)n1 [MMI-139] | – | – | 50 | – | – | – | 0 | 0.5 | 0 | – | – | – | – | – | – | – |
| CSCC[C@H](NC(=O)C(C)Cn1nc(C)cc1C)C(=O)N[C@@H](CC(C)C)[C@@H](O)C[C@@H](C)C(=O)N[C@H](C(=O)NCC(C)C)C(C)C (stereo partly shown) [MMI-196] | – | 28.8 | – | 28.8 | 18 | – | – | – | – | 351 | – | – | – | – | – | – |
| CSCC[C@H](NC(=O)[C@@H](NC(=O)OC(C)(C)C)C(C)C)C(=O)N[C@@H](CC(C)C)[C@@H](O)C[C@@H](C)C(=O)N[C@H](C(=O)NCc1ccccc1)C(C)C [MMI-017] | – | 3.9 | – | 3.9 | 2.4 | – | – | – | – | 1.2 | – | – | – | – | – | – |
